In a compilation of properties of binary mixtures (doi:10.1021/je300132e):

Experiment: xn = mol fraction of the nth substance listed
Settings: 101 kPa

CC[NH+](C)CC.CS(=O)(=O)[O-] + O
viscosity [mPa·s]
Settings	x2 = 0.372	x2 = 0.449	x2 = 0.507	x2 = 0.624	x2 = 0.707
293.1 K	65.26	49.94	41.92	27.93	–
313.1 K	–	21.55	18.69	13.36	10.09
333.1 K	–	11.37	–	7.34	5.72
353.1 K	8.2	–	6.08	–	3.6

CC(=O)[O-].CC[n+]1ccn(C)c1 + O
viscosity [mPa·s]
Settings	x2 = 0.347	x2 = 0.517	x2 = 0.578	x2 = 0.627	x2 = 0.705
293.1 K	93.7	–	–	42.8	–
313.1 K	35.2	24.4	21.4	18.2	14
333.1 K	16.9	–	–	9.39	7.36
353.1 K	9.51	7.19	6.46	5.63	4.38
